This is an account of results in patent US8809333B2, “Imidazole, pyrazole, and triazole derivatives useful as antibacterial agents” (Pfizer Inc., priority 2011, dated 2014).

≈ marks a conversion by molar mass, not a printed value.

For assay [1], the target named is T1, Pseudomonas aeruginosa LpxC enzyme (Pseudomonas aeruginosa, UniProt P47205).
T1 construct: made in house; host or cells: E. coli
T1 sequence (P47205 1-303): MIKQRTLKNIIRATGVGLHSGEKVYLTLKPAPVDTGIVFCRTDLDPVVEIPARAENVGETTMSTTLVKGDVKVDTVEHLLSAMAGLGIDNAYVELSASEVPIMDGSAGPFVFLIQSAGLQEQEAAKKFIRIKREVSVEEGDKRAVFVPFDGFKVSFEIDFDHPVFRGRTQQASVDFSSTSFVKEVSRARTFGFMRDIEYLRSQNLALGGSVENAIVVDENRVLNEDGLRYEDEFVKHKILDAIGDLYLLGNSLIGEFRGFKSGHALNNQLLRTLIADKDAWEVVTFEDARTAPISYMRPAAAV
As to the kind of experiment: IC50 assay, LpxC enzyme from P. aeruginosa (BioTrove RapidFire mass spectrometry). The assay is classed as biochemical. Particulars: P. aeruginosa LpxC enzyme 0.1 nM, 25° C., 1 hour, pH 8.0; read-out: PA: IC50. The procedure, abridged: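 P. aeruginosa LpxC reaction run 1 hour, stopped with 1 N HCl, and substrate-to-product conversion quantified by RapidFire mass spectrometry. IC50 calculated from percent conversion using a no-enzyme control.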

Assay [2] concerns Acinetobacter baumannii/haemolyticus: Multidrug-resistant clinical isolate (AB-3167). As to the kind of experiment: MIC determination (CLSI), AB-3167. Particulars: Acinetobacter baumannii/haemolyticus multidrug-resistant clinical isolate; overnight incubation; lower of duplicate values; read-out: AB-3167 (MIC). In kind it is cell-based. The gist of the method:
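Broth dilution MIC per CLSI M7-A8, 2-fold concentration steps, overnight incubation, visual read of lowest concentration inhibiting growth versus drug-free control. Tested in duplicate; lower value reported if within 2-fold, otherwise repeated; QC organisms and reference drugs required within range.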

Assay [3] has as its system Escherichia coli EC-1: VOGEL, mouse virulent. In words: MIC determination (CLSI), EC-1. The assay is classed as cell-based. The note with it: Escherichia coli, read-out: EC-1 (MIC). The gist of the method: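 Broth dilution MIC per CLSI M7-A8, with 2-fold compound dilutions incubated overnight with a standard inoculum. MIC is the lowest concentration visibly inhibiting growth versus drug-free control; tested in duplicate, reporting the lower value when within 2-fold, with QC organisms and reference compounds required in range.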

The test system of assay [4] is Klebsiella pneumoniae: Ciprofloxacin-resistant isolate, expresses ESBL, clinical isolate (KP-3700). In words: MIC determination (CLSI), KP-3700. In kind it is cell-based. Particulars: overnight incubation, lower of duplicate values. The gist of the method: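 Broth dilution MIC per CLSI M7-A8 against the ciprofloxacin-resistant, ESBL-expressing clinical isolate, 2-fold concentration steps, overnight incubation, visual read of lowest growth-inhibiting concentration. Tested in duplicate; lower value reported when within 2-fold; control organisms and reference compounds required within range.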

The test system of assay [5] is Pseudomonas aeruginosa UI-18: Wild-type (PA-7). In words: MIC determination (CLSI), PA-7. The note with it: Pseudomonas aeruginosa UI-18 wild-type; overnight incubation; lower of duplicate values; read-out: PA-7 (MIC). The assay is classed as cell-based. The procedure, abridged: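 Broth dilution MIC per CLSI M7-A8, using 2-fold compound dilutions incubated overnight; MIC is the lowest concentration with no visible growth versus the drug-free control. Run in duplicate, lower value reported when within 2-fold. Control organisms and reference compounds were included for QC.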

Turning to `CC(CCn1cc(-c2ccc(-c3cnco3)cc2)cn1)(C(=O)NO)S(C)(=O)=O` (stereo not drawn) [Example 72, N-hydroxy-2-methyl-2-(methylsulfonyl)-4-{4-[4-(1,3-oxazol-5-yl)phenyl]-1H-pyrazol-1-yl}butanamide], the half-inhibitory concentration (IC50) in assay [1] came to 0.373 nM. The MIC in assay [2] is > 64 µg/mL; in assay [3], 4 µg/mL (≈ 9.89 µM); in assay [5] it was 2 µg/mL (≈ 4.95 µM). Besides, in assay [4], the “KP-3700 (MIC)” value amounted to 16 µg/mL.

As to `CC(CCn1cc(-c2ccc(-c3ccno3)cc2)cn1)(C(=O)NO)S(C)(=O)=O` (stereo not drawn) [Example 73, N-hydroxy-2-methyl-2-(methylsulfonyl)-4-{4-[4-(1,2-oxazol-5-yl)phenyl]-1H-pyrazol-1-yl}butanamide], the half-inhibitory concentration (IC50) in assay [1] stood at 0.35 nM. In addition, the MIC in assay [2] is > 64 µg/mL; in assay [3], 4 µg/mL (≈ 9.89 µM); in assay [5] it was 2 µg/mL (≈ 4.95 µM). The “KP-3700 (MIC)” value in assay [4] was 16 µg/mL.

`CC(CCn1cc(-c2cccc(-c3ccno3)c2)cn1)(C(=O)NO)S(C)(=O)=O` (stereo not drawn) [Example 74, N-hydroxy-2-methyl-2-(methylsulfonyl)-4-{4-[3-(1,2-oxazol-5-yl)phenyl]-1H-pyrazol-1-yl}butanamide]: the IC50 in assay [1] was determined as 2.45 nM. For the same compound, the figures for the minimal inhibitory concentration (MIC) in assay [2], in assay [3] and in assay [5] were > 64 µg/mL, > 64 µg/mL and 32 µg/mL (≈ 79.1 µM), respectively. For the same compound, the “KP-3700 (MIC)” value in assay [4] was >64.0 µg/mL.

In the case of `CC(CCn1cc(-c2ccc3c(c2)C(=O)CCC3)cn1)(C(=O)NO)S(C)(=O)=O` (stereo not drawn) [Example 75, N-hydroxy-2-methyl-2-(methylsulfonyl)-4-[4-(8-oxo-5,6,7,8-tetrahydronaphthalen-2-yl)-1H-pyrazol-1-yl]butanamide], in assay [1], the IC50 was found to be 7.17 nM. The results for the minimum inhibitory concentration (MIC) in assay [2], in assay [3] and in assay [5] were > 64 µg/mL, > 64 µg/mL and 64 µg/mL (≈ 158 µM), respectively. The “KP-3700 (MIC)” value in assay [4] was >64.0 µg/mL.

For `CC(CCn1cc(-c2ccc(C(F)(F)F)cn2)cn1)(C(=O)NO)S(C)(=O)=O` (stereo not drawn) [Example 76, N-hydroxy-2-methyl-2-(methylsulfonyl)-4-{4-[5-(trifluoromethyl)pyridin-2-yl]-1H-pyrazol-1-yl}butanamide], the half-inhibitory concentration (IC50) in assay [1] is 37.3 nM. Besides, the MIC was > 64 µg/mL in assay [2], > 64 µg/mL in assay [3] and 64 µg/mL (≈ 157 µM) in assay [5]. Also, in assay [4], the “KP-3700 (MIC)” value is >64.0 µg/mL.

With `CC(CCn1cc(-c2ccc(C(F)(F)F)nc2)cn1)(C(=O)NO)S(C)(=O)=O` (stereo not drawn) [Example 77, N-hydroxy-2-methyl-2-(methylsulfonyl)-4-{4-[6-(trifluoromethyl)pyridin-3-yl]-1H-pyrazol-1-yl}butanamide], the IC50 in assay [1] came out at 19.5 nM. Further, the MIC in assay [2] was > 64 µg/mL; in assay [3] it was > 64 µg/mL; in assay [5], 64 µg/mL (≈ 157 µM). Besides, the “KP-3700 (MIC)” value in assay [4] is >64.0 µg/mL.

Turning to `CCOc1ccc(-c2cnn(CCC(C)(C(=O)NO)S(C)(=O)=O)c2)cc1C#N` (stereo not drawn) [Example 78, 4-[4-(3-cyano-4-ethoxyphenyl)-1H-pyrazol-1-yl]-N-hydroxy-2-methyl-2-(methylsulfonyl)butanamide], in assay [1], the IC50 is 21.7 nM. Also, the MIC is > 64 µg/mL in assay [2], > 64 µg/mL in assay [3] and 64 µg/mL (≈ 157 µM) in assay [5]. The “KP-3700 (MIC)” value in assay [4] is >64.0 µg/mL.

In the case of `Cc1nc2ccc(-c3cnn(CCC(C)(C(=O)NO)S(C)(=O)=O)c3)cc2s1` (stereo not drawn) [Example 79, N-hydroxy-2-methyl-4-[4-(2-methyl-1,3-benzothiazol-6-yl)-1H-pyrazol-1-yl]-2-(methylsulfonyl)butanamide], in assay [1], the IC50 was found to be 6.22 nM. Moreover, the MIC in assay [2] was > 64 µg/mL; in assay [3] it was 64 µg/mL (≈ 157 µM); in assay [5] it was 16 µg/mL (≈ 39.2 µM). In addition, the “KP-3700 (MIC)” value in assay [4] was >64.0 µg/mL.

Turning to `CC(CCn1cc(-c2ccc3nc(N)sc3c2)cn1)(C(=O)NO)S(C)(=O)=O` (stereo not drawn) [Example 80, 4-[4-(2-amino-1,3-benzothiazol-6-yl)-1H-pyrazol-1-yl]-N-hydroxy-2-methyl-2-(methylsulfonyl)butanamide], the IC50 in assay [1] turned out to be 75.8 nM. For the same compound, the minimal inhibitory concentration (MIC) in assay [2], in assay [3] and in assay [5] was > 64 µg/mL each time. In addition, in assay [4], the “KP-3700 (MIC)” value was >64.0 µg/mL.
